These results are taken from patent publication US20260226001A1, “PROCESS FOR PREPARING AN N-GUANYLAMINO ACID” (Evonik Operations GmbH, priority 2023, published 2026).

Series [1] in a line: Storage of acidic, concentrated permeate in a fridge; GAA content determined by HPLC. Format: physicochemical. The following applies: for GAA content: acidic and concentrated permeate stored in a fridge. The procedure: After fermentation and inactivation of the fermentation broth, the pH of the broth was adjusted to 1.5 using 75% w/w of H2SO4 at a temperature of 50° C. The biomass was removed by means of ultrafiltration and the temperature of the broth was kept constant at 50° C. The resulting permeate was concentrated at 80° C. and used for the crystallization step. The permeate fed to the crystallization was adjusted to pH 8 using 25% w/w of NH4OH. The formed crystals were separated by means of a suction filter and dried.
A part of the acidic and concentrated permeate was stored aside in a fridge over a period of ca. 2 weeks. The GAA content in said permeate was regularly determined by means of HPLC.
Description of the HPLC Method:
• 2.3 g ammonium dihydrogenphosphate (NH4H2PO4) and • 2.6 g di-ammonium hydrogenphosphate ((NH4)2HPO4) • dissolved in 2 L purified water
2.3 g ammonium dihydrogenphosphate (NH4H2PO4) and • 2.6 g di-ammonium hydrogenphosphate ((NH4)2HPO4) • dissolved in 1 L purified water and mixed with 1 L acetonitrile
The following gradient was used in the HPLC method: […]

For series [2] the following is noted: aqueous medium; cited from earlier work.

As for `N=C(N)NCC(=O)O` [GAA, guanidinoacetic acid], the GAA content in series [1] (1 Apr. 2022) is reported as 120.9 g/kg; in series [1] (7 Apr. 2022), 118.5 g/kg; in series [1] (12 Apr. 2022), 119.9 g/kg; in series [1] (13 Apr. 2022), 119.3 g/kg. Besides, the “degradation of the GAA in the acidic and concentrated permeate” value in series [1] (fridge, over the 2-week period, HPLC) is “no degradation”. For the same compound, the pKa result in series [2] is reported as “approximately 2.9”. Also, the pKb result in series [2] was “approximately 10.91”.
